The values below come from patent US20110142889A1, “COMPOSITIONS AND METHODS FOR ORAL DRUG DELIVERY” (NOD Pharmaceuticals, Inc., priority 2009, published 2011).

For data set [1] the following is noted: estimated; cited from earlier work.
For data set [2] the following is noted: dog, in vivo.
Description: The absorption of oral insulin was evaluated in beagles under somatostatin infusion at 1 μg/kg/min via an indwelling vein catheter.
Twelve beagle dogs with body weights between 8-12 kg were housed in an animal facility. The dogs were randomly divided into three groups and fasted overnight. Water was supplied ad libitum. Somatostatin infusion (1 μg/kg/min) was performed using a balloon infusion pump via an indwelling vein catheter, and tablets were fed with 10 ml water at 4 hr after initiation of somatostatin infusion. Food was restricted during the study, and blood samples were collected at various time points in heparinized tubes.
Blood glucose concentration was measured with a glucometer and matching testing strips (Johnson & Johnson, OneTouch®), and serum samples of 0.5-0.6 ml were recovered after blood samples were collected and centrifuged at 3000 rpm for 10 min. The samples were frozen at −20° C., and insulin concentration was measured by ELISA (Linco).
In a further data set the test system is blood glucose. Nature of the data set: effect of oral insulin on blood glucose in somatostatin infused dogs (Example 9). The class given is in vivo, beagle dogs. The note with it: somatostatin infusion 1 μg/kg/min; FIG. 8B. The text has this: Water was supplied ad libitum.
The conditions of data set [3]: colon suppository containing 25 mg sodium caprate; cited from earlier work.

As for `CCCCCCCCCC(=O)[O-].[Na+]` [sodium caprate], in data set [1], the “concentration needed to achieve a permeation enhancing effect” value was 10 to 13 mM.
On to insulin [Insulin injection], for which the “effect on serum insulin concentration” value in data set [2] is “large increase in insulin concentration”. Further, in the data set with blood glucose, the “effect on blood glucose” value is “rapid and profound reduction of glucose levels”.
As to `CC1(C)S[C@@H]2[C@H](NC(=O)[C@H](N)c3ccccc3)C(=O)N2[C@H]1C(=O)O` [ampicillin], in data set [3], the “increase of area under the serum concentration-time curve (AUC) compared to ampicillin alone” value is 2.3 fold and the “increase of maximum serum concentration (Cmax) compared to ampicillin alone” value is listed as 2.6 fold.
